In patent USRE44971E1, “Method for selection of transformed cells” (priority 2006, dated 2014):

Key:
[1] = test system: soybean cells transformed with pMON73691
Description: Mature seeds of soybean [Glycine max (L.) Merrill] cv. A3525 were imbibed, sterilized, and germinated at room temperature as set forth below. Other examples of soybean genotypes that can readily be used include, but are not limited to, Jack, Williams, Bert, Thorne, Granite, Lambert, Chapman, and Kunitz. Briefly, dry seeds (about 770 g) were soaked for 3 min in 2 L of 200 ppm sodium hypochlorite solution made from commercially available Clorox. The solution was drained and the seeds were set side for about 2 h. About 2 L of bean sterilization/germination medium was then added to the seeds. After about 9-10 h, seeds were ready for hand excision of explants. The bean germination medium contained the following in mg/L—NH4NO3: 240, KNO3: 505, CaCl2.2H2O: 176, MgSO4.7H2O: 493, KH2PO4: 27, H3BO3: 1.86, Na2MoO4.2H2O: 0.216, MnSO4.H2O: 5.07, ZnSO4. 7H2O: 2.58, FeSO4.7H2O: 2.502, KI: 0.249, Na2EDTA. 2H2O: 3.348, CuSO4.5H2O: 0.0008, CoCl2.6H2O: 0.0008, B1: 1.34, B3: 0.5, B6: 0.82, Bravo (75% WP; Diamond Shamrock Company, Cleveland, Ohio): 30, Captan (50% WP; Micro Flo Company, Lakeland, Fla.): 30, Cefotaxime: 125, and Sucrose: 25000, pH 5.8).
The binary vectors described above were mobilized into disarmed Agrobacterium tumefaciens strain C58 (ABI). Agrobacterium inoculum for infection was prepared as follows: 250 ml of LB medium (Luria-Bertani; Difco, Detroit, Mich.) containing 50 mg/l kanamycin (Sigma, St. Louis, Mo.) and 75 mg/l spectinomycin (Sigma, St. Louis, Mo.) was inoculated with 0.5 ml of Agrobacterium stock in glycerol (Acros Organics, Geel, Belgium) and was shaken at 200 rpm at 28° C. for approximately 20-22 h until the OD660 reached 0.8 to 1.0. The Agrobacterium broth was then centrifuged for 25 min at 3500 rpm (about 3565 g) at 2-4° C. After removing the supernatant, the Agrobacterium pellet was re-suspended in inoculation medium containing ⅖× of the macro nutrients, 1/10× of the micro nutrients and vitamins of Gamborg's B5 medium, supplemented with 3.9 g/l MES (Sigma, St. Louis, Mo.), and 30 g/l glucose (PhytoTechnology Laboratories, Shawnee Mission, Kans.), pH 5.4. Lipoic acid (Sigma, St. Louis, Mo.) was added to the Agrobacterium suspension to a final concentration of 0.25 mM after the density of the Agrobacterium cell suspension was adjusted to an OD660 of 0.30 to 0.35.
Agrobacterium-infection and co-cultivation of the explants were conducted as follows: about 100 excised explants were dispensed into the lid of a sterile plastic culture vessel PLANTCON (MP Biomedicals, LLC, Irvine, Calif.). Five ml of Agrobacterium inoculum was added to the explants in each PLANTCON lid. The explants were then sonicated for 20 sec in a sonicator (Ultrasonic Multi Cleaner, Model W-113, Honda, Japan). One piece of Whatmann #1 filter paper (Whatman Inc., Clifton, N.J.) cut to the size of the PLANTCON bottom was placed in the bottom part of the PLANTCON. The explants were transferred from the lid onto the filter paper with the Agrobacterium inoculum. The PLANTCON s were then incubated in a Percival incubator at 16 h light (at about 85-90 μE) and 8 h dark photoperiod and at 23° C. for 2 to 4 d for co-cultivation.
After a co-cultivation period of 2-4 days, explants were first cultured on a medium without dicamba (delay medium) for 3-5 d before being transferred to the selection medium with dicamba. Until transfer from delay medium to selection medium, the explants were kept in the same PLANTCON used for co-cultivation, but 10 or 12 ml of the delay medium was added to each PLANTCON. Alternatively, the explants were transferred to new PLANTCONs, each containing one piece of autoclaved felt (Jo-Ann Fabrics & Crafts, Madison, Wis.)) and 30 ml of the delay medium.

[2] = test system: Wild type Arabidopsis var. Columbia; conditions: 1.0 mg/L in the culture medium; FIG. 8
Description: The susceptibility of Arabidopsis to different levels of dicamba was first tested. Wild type Arabidopsis var. Columbia seeds were plated on plant tissue culture medium containing various levels of dicamba. […] Arabidopsis plants were then transformed with the constructs containing DMO polynucleotides using the floral dip method (Clough and Bent, 1998). R1 seeds were plated on the culture medium containing up to 4 mg/L of dicamba.

[3] = test system: soybean explants inoculated with Agrobacterium harboring pMON73691 (DMO and GFP genes); assay: Selection of pMON73691-inoculated soybean explants with 2,4-D or dicamba in liquid medium, GFP+ buds; assay type: cell-based; conditions: selective agent 0.01 mg/L; 375 explants inoculated; pMON73691
Description: Freshly isolated soybean explants (mature embryo axes without cotyledons) were inoculated with Agrobacterium strain ABI harboring pMON73691 (containing DMO and GFP genes). After 3-d co-culture with Agrobacterium at 23° C. and a photoperiod of 16-h light and 8-h dark, the explants were cultured in liquid delay medium which contained modified woody plant medium supplemented with 5 mg/l BAP, 200 mg/l carbenicillin, 200 mg/l cefotaxime and 100 mg/l ticarcillin. The explants were in the delay medium for 4 days. They were then transferred to liquid selection medium in PLANTCONs. The selection medium was the same as the delay medium except of addition of various levels of 2,4-D (0.01, 0.1, 1.0 or 2.0 mg/L) or 0.01 mg/L dicamba as shown in Table 9 below. Each PLANTCON contained 60 ml of the selection medium and one piece of foam sponge with 5 slits. Twenty-five explants were evenly inserted into the slits. The cultures were maintained at 28° C. and a photoperiod of 16-h light and 8-h dark, and were examined periodically under a […] equipped for detecting GFP expressing tissues.

COc1c(Cl)ccc(Cl)c1C(=O)O [dicamba, 3,6-dichloro-o-anisic acid]
dicamba-tolerant shoots harvested ([1]; 0.01 mg/l in selection medium, from 800 explants, pMON73691): 30
tolerant shoots harvested ([1]; 0.02 mg/l in selection medium, pMON73691): few tolerant shoots were harvested
tolerant shoots obtained ([1]; 0.05 or 0.1 mg/l in selection medium, pMON73691): no tolerant shoots were obtained
tolerant shoots that formed roots on rooting medium and were transferred to soil ([1]; of 30 shoots selected on 0.01 mg/l): Twelve
plants positive for DMO-encoding polynucleotides ([1]; of ten tested, selected on 0.01 mg/l): seven
concentration most efficacious for selecting dicamba-tolerant shoots ([1]; soybean explants, pMON73691): ≤ 0.01 mg/L
susceptibility of wild type Arabidopsis [2]: quite susceptible
# Explants w/GFP + buds/young shoots at 48DAI [3]: 28
